Experimental data reported in patent US8551453B2, “Aromatic triamide-lanthanide complexes” (The Regents of the University of California, priority 2003, dated 2013).

How the values were obtained:
Format in all cases: physicochemical
[1] = Stability constants of the Tb complex by spectrophotometric titration
Description: (§1) The stability constants of the lanthanide complexes formed with the ligand H22TAMDIAM(9A) were estimated through spectrophotometric titrations.
(§2) The stability constants of the Eu and Tb complexes formed with the ligand H22TAMDIAM (9A) have been calculated form these experiments and the results are reported in the table.

[2] = Protonation constants of the ligand by spectrophotometric titration; settings: free ligand; for PKa: IAM
[3] = Stability constants of the Eu complex by spectrophotometric titration
Experimental: FIG. 3 Spectrophotometric titration of a 1:1 ratio Eu:H22MeTIAM (9A): I=0.1, 25° C., optical path=1 cm.
as §1, §2

In the case of H4H(2,2)TIAM [Compound 9A], the “Log[…]11-1” value [1] is reported as 12.60(7), the “Log[…]11-2” value [1] is reported as 3.62(9) and the “Log[…]110” value [1] is reported as 17.85(3). For the same substance, the pKa ([1]; line Log[…]11-1) was 5.25, the pKa ([1]; line Log[…]11-2) was 8.98 and the pM ([1]; n = 3) was “Tb, pM = 19.7,n = 3”. The “Proton Affinity Log […]011” value ([2]; cumulative protonation constant, 1 proton (phenolic)) was 8.58(2), the “Proton Affinity Log […]012” value ([2]; cumulative protonation constant, 2 protons) was 15.17(3) and the “Proton Affinity Log […]013” value ([2]; cumulative protonation constant, 3 protons) was 20.38(4). For the same substance, the “Proton Affinity Log […]014” value ([2]; cumulative protonation constant, 4 protons) was 24.46(6), the PKa ([2]; first phenolic proton (line Log […]011)) was 8.58 and the PKa ([2]; fourth phenolic proton (line Log […]014)) was 4.08. The PKa ([2]; second phenolic proton (line Log […]012)) was 6.59, the PKa ([2]; third phenolic proton (line Log […]013)) was 5.21 and the “Log[…]11-1” value ([3]; 1:1 Eu:ligand, I=0.1, 25° C.) was 11.04(2). The “Log[…]11-2” value ([3]; 1:1 Eu:ligand, I=0.1, 25° C.) was 1.98(10), the “Log[…]110” value ([3]; 1:1 Eu:ligand, I=0.1, 25° C.) was 17.29(1) and the pKa ([3]; line Log[…]11-1) was 6.25. The pKa ([3]; line Log[…]11-2) was 9.06 and the pM ([3]; n = 3) was “Eu, pM = 18.2, n = 3”.
